Measured values taken from ChEMBL document CHEMBL1154023, “Carbonic anhydrase inhibitors. Inhibition of the beta-class enzyme from the pathogenic yeast Candida glabrata with anions” (Bioorg Med Chem Lett, 2009).

biological target: T1, Carbonic anhydrase (Candida glabrata CBS 138, UniProt Q6FTL6); test: Inhibition of Candida glabrata carbonic anhydrase by stopped flow CO2 hydration assay; parameters: species or system Nakaseomyces glabratus
T1 sequence (Q6FTL6 whole entry): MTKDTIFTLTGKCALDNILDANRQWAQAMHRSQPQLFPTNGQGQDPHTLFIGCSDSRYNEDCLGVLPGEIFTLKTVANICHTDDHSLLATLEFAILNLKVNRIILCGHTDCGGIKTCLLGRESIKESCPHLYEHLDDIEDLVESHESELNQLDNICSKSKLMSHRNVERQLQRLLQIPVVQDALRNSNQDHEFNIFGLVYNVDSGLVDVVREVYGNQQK

| Ki [µM] | Structure (SMILES) |
| --- | --- |
| 100 | OB(O)c1ccccc1 [PHENYLBORONIC ACID] |
| 110 | NS(=O)(=O)O [SODIUM SULFAMATE] |
| 420 | NS(N)(=O)=O [SULFAMIDE] |
